From patent US6495606B1, “Nitric oxide synthase inhibitors” (SmithKline Beecham Corporation, priority 1998, dated 2002)

Legend:
human iNOS = target: T1, human iNOS (Homo sapiens, UniProt P35228); assay: Inhibition of isolated human iNOS; assay type: biochemical; details: purified human iNOS, haemoglobin absorption assay
T1 construct: made in house
From the text: 1. Inhibition of Isolated Human iNOS
The inhibition of purified human iNOS may be determined using a preparation of human iNOS as described in the chapter “Expression if Human Nitric Oxide Synthase Isozymes” by Charles et al in Methods in Enzymology, 1996 Volume 268, 449-460. Activity may be monitored using quantitative absorption changes of haemoglobin as described by R. G. Knowles and J. Dawson in “A Microtitreplate Assay of Human NOS Isoforms” in Methods in Molecular Biology, 1998, Volume 100, 237-242, Nitric Oxide Protocols, Ed M. A. Titheradge, Humana Press, Totowa N.J.

iNOS = target: T2, iNOS (Rattus norvegicus, UniProt Q06518); assay: Inhibition of iNOS in situ in rat aortic rings (LPS-induced, endothelium-denuded, ring tension); assay type: cell-based
T2 construct: endothelium-denuded rings were exposed to LPS; from tissue; host or cells: rat thoracic aorta rings, endothelium-denuded, LPS-treated
Description: (§1) 2. Inhibition of eNOS and INOS in Rat Aortic Rings
(§2) The inhibition of eNOS and iNOS in situ in rat aortic rings was assessed by measuring the increases in ring tension caused by NO synthase inhibition. For studies of basal tone (reflecting eNOS), rings of thoracic aorta with intact endothelium were prepared as described previously (Rees et at. (1989) Br. J. Pharmol. 96, 418-424) and cumulative concentration curves obtained for the inhibitors in the presence of a threshold concentration of phenylephrine (ED10≈10 nM). For studies of induced smooth muscle tone (reflecting iNOS), endothelium-denuded rings were exposed to LPS (0.1 μg/ml from S. typhosa) in the presence of phenylephrine at approximately ED90 for 6 h as described previously (Rees et al. (1990) Biochem. Biophys. Res. Commun. 173, 541-547). During this time a progressive loss of tone occurred because of iNOS induction. Cumulative concentration curves were then obtained for the inhibitors.

eNOS = target: T3, eNOS (Rattus norvegicus, UniProt Q62600); assay: Inhibition of eNOS in situ in rat aortic rings (basal tone, intact endothelium, ring tension); assay type: cell-based; details: rat aortic rings with intact endothelium, threshold phenylephrine
T3 construct: from tissue; host or cells: rat thoracic aorta rings with intact endothelium
Description: as §1, §2

nNOS = target: T4, nNOS (Rattus norvegicus, UniProt P29476); assay: Inhibition of nNOS in rat cortical slices (14C-arginine to 14C-citrulline); assay type: cell-based
T4 construct: rat cerebral cortex slices; from tissue; host or cells: rat cerebral cortex slices (McIlwain-chopped)
Description: 3. Inhibition of nNOS in Rat Cortical Slices
The effects of compounds on nNOS in rat brain slices was determined as described in Furfine et al (1994) J. Biol. Chem. 269, 26677-26683 and Lizasoain et al (1995) J. Neurochem. 64, 636-642. KCl (54 mM)—stimulated NO synthesis was measured by the conversion of 14C-arginine to 14C-citrulline over a 2 h period at 37° C. in Mcllwain—chopped (0.2 mm ×0.2 mm) rat cerebral cortex slices, following a 1 h preincubation period in the absence of compound or high KCl.

[1] = Oral bioavailability and pharmacokinetics in rats; assay type: in vivo, rat
Description: 4. Method for Determining the Oral Bioavailability of iNOS Inhibitor Compounds
Rats (3 animals per time point) were dosed intravenously (10 mg/kg) and orally (50 mg/kg) with test compound in an aqueous solution. Blood samples were taken at time intervals after administration and plasma prepared by centrifugation. Samples were stored at −20° C. until analysis.
Plasma (50 μl) was de-proteinated and compound derivatised with a quaternary ammonium reagent. Samples were then injected onto an HPLC system and compound concentration determined using mass spectrometric detection.
The plasma concentrations obtained by the above method were entered into a pharmacokinetic software package (PKCAL v 1.2s) and the data were fitted using a non-compartmental method. The oral bioavailability of the compounds was determined by comparing the Area Under the Curve (AUC) values calculated by the software for the oral profile with the AUC for the intravenous profile. The half-lives were obtained by fitting the terminal phase time points of the intravenous profile.

T1 sequence (P35228 whole entry): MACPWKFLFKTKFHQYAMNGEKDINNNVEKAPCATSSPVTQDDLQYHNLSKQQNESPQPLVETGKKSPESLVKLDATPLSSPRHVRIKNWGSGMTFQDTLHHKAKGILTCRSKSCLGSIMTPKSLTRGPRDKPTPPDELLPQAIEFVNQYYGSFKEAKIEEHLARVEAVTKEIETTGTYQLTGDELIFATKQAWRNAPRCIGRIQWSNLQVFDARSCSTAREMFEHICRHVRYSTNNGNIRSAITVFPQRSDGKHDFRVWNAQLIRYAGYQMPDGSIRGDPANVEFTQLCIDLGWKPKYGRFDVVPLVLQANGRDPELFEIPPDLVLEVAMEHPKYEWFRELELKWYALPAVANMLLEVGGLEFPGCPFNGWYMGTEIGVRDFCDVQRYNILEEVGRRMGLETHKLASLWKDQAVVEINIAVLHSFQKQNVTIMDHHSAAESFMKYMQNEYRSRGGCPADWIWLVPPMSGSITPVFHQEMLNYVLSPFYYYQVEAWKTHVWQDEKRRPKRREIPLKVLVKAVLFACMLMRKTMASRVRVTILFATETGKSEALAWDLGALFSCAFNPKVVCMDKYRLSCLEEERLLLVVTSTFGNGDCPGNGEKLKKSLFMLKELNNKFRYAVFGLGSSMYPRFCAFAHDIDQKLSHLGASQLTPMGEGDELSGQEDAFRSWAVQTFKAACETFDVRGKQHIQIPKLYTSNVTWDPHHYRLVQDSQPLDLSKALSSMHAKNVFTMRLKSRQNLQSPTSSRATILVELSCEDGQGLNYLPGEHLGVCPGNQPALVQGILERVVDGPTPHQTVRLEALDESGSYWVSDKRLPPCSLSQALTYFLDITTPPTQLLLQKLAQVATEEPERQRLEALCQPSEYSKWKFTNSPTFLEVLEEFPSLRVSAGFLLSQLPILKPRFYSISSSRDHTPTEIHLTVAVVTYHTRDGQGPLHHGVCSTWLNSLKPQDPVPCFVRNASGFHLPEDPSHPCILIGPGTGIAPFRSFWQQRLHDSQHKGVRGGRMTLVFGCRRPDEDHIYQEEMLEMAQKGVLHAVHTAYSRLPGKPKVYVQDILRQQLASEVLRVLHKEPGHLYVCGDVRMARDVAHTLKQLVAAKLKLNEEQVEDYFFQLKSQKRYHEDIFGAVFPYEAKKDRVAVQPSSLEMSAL
T4 sequence (P29476 whole entry): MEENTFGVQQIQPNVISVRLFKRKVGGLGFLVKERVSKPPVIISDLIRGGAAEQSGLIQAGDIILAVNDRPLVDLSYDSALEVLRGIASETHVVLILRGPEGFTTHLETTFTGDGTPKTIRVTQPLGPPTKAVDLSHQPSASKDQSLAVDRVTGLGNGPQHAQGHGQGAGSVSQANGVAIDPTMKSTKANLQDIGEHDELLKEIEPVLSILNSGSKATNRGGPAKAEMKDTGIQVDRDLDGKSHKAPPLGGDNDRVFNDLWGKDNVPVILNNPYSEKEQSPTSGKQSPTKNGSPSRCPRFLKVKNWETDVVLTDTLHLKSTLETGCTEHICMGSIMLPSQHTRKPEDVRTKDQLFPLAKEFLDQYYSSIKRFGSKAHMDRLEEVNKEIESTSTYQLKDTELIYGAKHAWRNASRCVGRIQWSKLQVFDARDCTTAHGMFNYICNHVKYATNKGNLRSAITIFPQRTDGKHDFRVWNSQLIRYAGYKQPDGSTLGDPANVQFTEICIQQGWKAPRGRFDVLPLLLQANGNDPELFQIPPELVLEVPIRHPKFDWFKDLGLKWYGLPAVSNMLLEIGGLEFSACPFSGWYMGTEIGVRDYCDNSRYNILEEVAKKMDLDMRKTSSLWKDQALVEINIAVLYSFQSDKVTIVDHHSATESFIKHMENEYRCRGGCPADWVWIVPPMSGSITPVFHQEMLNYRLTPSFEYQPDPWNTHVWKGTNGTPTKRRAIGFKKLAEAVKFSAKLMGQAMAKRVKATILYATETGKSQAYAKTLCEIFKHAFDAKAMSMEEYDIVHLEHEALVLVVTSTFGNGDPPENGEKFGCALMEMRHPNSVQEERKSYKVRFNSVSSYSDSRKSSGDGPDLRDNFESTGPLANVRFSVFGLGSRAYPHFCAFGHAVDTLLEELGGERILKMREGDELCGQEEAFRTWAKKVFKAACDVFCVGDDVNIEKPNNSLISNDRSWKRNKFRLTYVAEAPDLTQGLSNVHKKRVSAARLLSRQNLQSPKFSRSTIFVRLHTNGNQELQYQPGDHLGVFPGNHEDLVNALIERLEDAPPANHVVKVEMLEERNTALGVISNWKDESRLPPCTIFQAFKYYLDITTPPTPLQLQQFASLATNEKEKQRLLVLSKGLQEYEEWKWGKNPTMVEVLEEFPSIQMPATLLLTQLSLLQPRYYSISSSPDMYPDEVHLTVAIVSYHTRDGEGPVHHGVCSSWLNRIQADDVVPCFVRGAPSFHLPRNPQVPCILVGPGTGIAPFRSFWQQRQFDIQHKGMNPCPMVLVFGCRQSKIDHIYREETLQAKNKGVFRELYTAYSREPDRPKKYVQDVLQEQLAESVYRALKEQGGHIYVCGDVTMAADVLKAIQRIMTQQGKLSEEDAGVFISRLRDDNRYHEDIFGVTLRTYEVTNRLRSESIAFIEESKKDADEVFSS
T2 sequence (Q06518 whole entry): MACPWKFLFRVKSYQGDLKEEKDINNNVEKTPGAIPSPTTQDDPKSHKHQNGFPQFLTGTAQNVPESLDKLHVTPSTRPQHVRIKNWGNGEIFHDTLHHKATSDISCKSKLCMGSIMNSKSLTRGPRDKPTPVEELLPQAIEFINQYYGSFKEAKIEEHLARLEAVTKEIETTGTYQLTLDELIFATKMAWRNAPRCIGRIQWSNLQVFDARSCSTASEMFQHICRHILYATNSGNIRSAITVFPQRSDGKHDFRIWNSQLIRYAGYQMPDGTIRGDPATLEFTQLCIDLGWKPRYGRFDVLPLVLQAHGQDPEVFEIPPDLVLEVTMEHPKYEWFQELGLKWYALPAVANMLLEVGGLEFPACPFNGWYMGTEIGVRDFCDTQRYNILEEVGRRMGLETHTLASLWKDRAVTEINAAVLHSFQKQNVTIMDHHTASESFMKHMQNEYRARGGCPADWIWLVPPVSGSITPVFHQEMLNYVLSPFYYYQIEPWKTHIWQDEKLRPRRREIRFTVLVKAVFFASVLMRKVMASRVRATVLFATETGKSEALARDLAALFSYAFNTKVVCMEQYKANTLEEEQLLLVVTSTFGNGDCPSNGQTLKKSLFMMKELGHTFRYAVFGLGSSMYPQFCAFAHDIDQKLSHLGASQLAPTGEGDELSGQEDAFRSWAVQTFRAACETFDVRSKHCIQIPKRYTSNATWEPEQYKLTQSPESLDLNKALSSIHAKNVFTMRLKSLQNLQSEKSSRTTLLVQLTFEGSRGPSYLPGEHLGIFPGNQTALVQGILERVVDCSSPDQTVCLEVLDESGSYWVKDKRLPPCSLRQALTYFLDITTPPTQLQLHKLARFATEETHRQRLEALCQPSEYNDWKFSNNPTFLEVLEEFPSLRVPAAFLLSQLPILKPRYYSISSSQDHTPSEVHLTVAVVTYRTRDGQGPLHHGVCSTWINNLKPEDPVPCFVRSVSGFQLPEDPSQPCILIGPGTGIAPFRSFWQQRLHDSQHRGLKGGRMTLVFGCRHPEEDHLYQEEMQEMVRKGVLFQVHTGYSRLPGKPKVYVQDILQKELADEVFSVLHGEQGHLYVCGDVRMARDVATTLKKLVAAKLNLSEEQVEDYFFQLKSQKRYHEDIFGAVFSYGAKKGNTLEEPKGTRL
T3 sequence (Q62600 2-1202): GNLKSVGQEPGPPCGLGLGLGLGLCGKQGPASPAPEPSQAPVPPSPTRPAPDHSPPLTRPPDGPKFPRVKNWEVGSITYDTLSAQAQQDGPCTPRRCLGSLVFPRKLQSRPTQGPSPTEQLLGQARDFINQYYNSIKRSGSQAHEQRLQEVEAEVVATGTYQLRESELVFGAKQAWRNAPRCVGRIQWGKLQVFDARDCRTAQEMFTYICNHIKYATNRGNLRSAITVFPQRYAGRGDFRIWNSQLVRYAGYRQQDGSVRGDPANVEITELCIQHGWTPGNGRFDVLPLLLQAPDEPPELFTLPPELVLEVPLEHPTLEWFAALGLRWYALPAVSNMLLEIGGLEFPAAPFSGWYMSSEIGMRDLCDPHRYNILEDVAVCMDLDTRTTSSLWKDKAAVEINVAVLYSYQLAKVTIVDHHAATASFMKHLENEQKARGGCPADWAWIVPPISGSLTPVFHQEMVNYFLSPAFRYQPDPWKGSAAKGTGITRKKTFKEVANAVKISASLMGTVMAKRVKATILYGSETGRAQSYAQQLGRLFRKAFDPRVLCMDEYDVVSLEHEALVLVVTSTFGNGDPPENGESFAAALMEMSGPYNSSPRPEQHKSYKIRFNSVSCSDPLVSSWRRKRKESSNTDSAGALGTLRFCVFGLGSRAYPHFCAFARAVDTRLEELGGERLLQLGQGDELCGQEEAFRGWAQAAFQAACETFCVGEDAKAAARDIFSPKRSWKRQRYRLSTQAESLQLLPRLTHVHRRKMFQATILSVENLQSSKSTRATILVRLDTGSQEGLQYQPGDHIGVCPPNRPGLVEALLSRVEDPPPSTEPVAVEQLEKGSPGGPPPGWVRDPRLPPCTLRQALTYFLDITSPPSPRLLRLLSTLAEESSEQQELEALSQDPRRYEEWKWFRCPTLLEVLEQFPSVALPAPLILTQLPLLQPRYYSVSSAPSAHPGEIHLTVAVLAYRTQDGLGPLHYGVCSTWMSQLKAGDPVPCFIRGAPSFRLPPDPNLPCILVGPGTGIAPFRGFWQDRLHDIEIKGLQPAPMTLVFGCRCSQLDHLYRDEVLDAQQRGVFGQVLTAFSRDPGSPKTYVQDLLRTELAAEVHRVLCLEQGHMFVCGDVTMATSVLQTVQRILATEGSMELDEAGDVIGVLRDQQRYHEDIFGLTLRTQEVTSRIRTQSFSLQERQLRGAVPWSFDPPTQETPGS

Substance: S-[(S)-2-(1-Iminoethylamino)propyl]-L-cysteine Dihydrochloride [Example 2]
- IC50 (human iNOS): 39 µM

Substance: S-[(R/S)-2-(1-Iminoethylamino, 2-Cyclopropyl)ethyl]-L-cysteine Dihydrochloride [Example 7]
- IC50 (human iNOS): 6.2 µM

Substance: S-[(R)-2-(1-Iminoethylamino)propyl]-L-cysteine Dihydrochloride [Example 1]
- IC50 (human iNOS): 2 µM
- selectivity iNOS vs eNOS (iNOS): >75
- IC50 (iNOS; endothelium-denuded, LPS 0.1 μg/ml 6 h, phenylephrine approx. ED90): 0.26 µM
- IC50 (eNOS): > 20 µM
- IC50 (nNOS; rat cerebral cortex slices, KCl (54 mM)-stimulated NO synthesis, 2 h, 37° C.): > 80 µM
- selectivity for iNOS versus nNOS (nNOS; rat tissue assays): > 300 fold
- half-life ([1]; intravenous 10 mg/kg, terminal phase): 2 to 4 h
- oral bioavailability ([1]; oral 50 mg/kg vs intravenous 10 mg/kg, AUC comparison): > 90%

Substance: S-[(S)-2-(1-Iminoethylamino)propyl]-D-cysteine Dihydrochloride [Example 3]
- IC50 (human iNOS): 6.6 µM

Substance: S-[(R)-2-(1-Iminoethylamino)propyl]-D-cysteine Dihydrochloride [Example 4]
- IC50 (human iNOS): 48 µM
